For experiment [1], the system named is E. coli. Nature of the experiment: Killing (antimicrobial) test, CFU count. Type of experiment: cell-based, Escherichia coli. Here is the method: The initial colony forming units per mL (CFU/mL) were counted by plating 50 uL of a dilution 1:10,000 of the culture on LB agar plates. Next, 3 ml of the bacterial culture were treated with 1 ml of separately generated H2O2 0.75 M such that the final concentration of H2O2 in the bacteria containing plates reached around 0.25 M. To count the bacterial survival after treatment, 100 μl of 1:10,000 dilution were plated on LB agar plates and incubated at 37° C. for 18-24 hrs. The percentage of killed bacteria was calculated using the initial CFU as 100% and subtracting the recovered CFU after treatment.

For experiment [2], the system named is Escherichia coli (strain BW25113). The settings on record: paper filter disks moistened with 0.75 M generated hydrogen peroxide in PBS on seeded LB agar, 37° C. for 18-24 hr, qualitative. Here is the method: A plate with Lysogeny Broth (LB) Agar media was evenly seeded with a 1 Optical Density (OD) culture of Escherichia coli (strain BW25113). […] Plates were left to dry and incubated at 37° C. for 18-24 hr.

Experiment [3] relates to E. coli. The settings on record: 0.5 mL of 0.05 OD culture, 5 mA electric current for 30 min; triplicate experiments.
Description: To test this an E. coli culture was grown from a single colony in LB media at 37° C., until reaching 0.05 OD. Next, 0.5 mL of this culture was treated with 5 mA of electric current for 30 min. The counting of CFU/ml before and after applying the current for 30 min was done by plating 50 and 100 μL of 1:10,000 dilution respectively on LB agar plates and incubating at 37° C. for 18-24 hrs.

“And” between values parts separate entries of the source, which are not always exact repeats. Equal values may be shown once. Read-outs that look alike come from different tables or passages of the source.

In the case of `OO` [hydrogen peroxide], the “Peroxide Treated (CFU x 10^6)” value in experiment [1] (3 ml culture (0.05 OD) + 1 ml separately generated H2O2 0.75 M, final around 0.25 M, triplicate experiments) was 1.2 CFU x 10^6 and 0.7 CFU x 10^6. Besides, the “% Killed (%)” value in experiment [1] (final H2O2 around 0.25 M, initial CFU as 100%, triplicate experiments) is 96.1% and 96% and 94.2%; in experiment [3] it was 99.6%. The “rate at which bacteria population is killed” value in experiment [1] (from triplicate antimicrobial test, Table 4) was 2.5 % CFU/μmol H2O2. The “zone of growth inhibition” value in experiment [2] is “disinfection in region of clearance”; in experiment [2] (listed as H2O2), “zone of growth inhibition”.
